Where a name gives a salt, the structure may show the parent alone.
Experiments:
[1] = tested on: Bx-PC3 cells; assay: Wound healing assay (cell migration); assay type: cell-based, human
Description: To evaluate the effect of caryophyllane sesquiterpenes, both alone and in combination with sorafenib, on the cell migration rate, the wound healing assay was performed. Bx-PC3 cells were seeded in 24-well plate at a density of 2.5 × 10^5 cells/well. After 24 h, the wound was created by scratching the well bottom with a 100 μL pipette tip, then the cells were treated under the scheduled conditions and images were captured at 0, 4, and 72 h using a Cytation 1 Cell Imaging Multi-Mode Reader. […] Results were expressed as wound area percentage with respect to that of the same well at zero time. The positive controls were also included.

[2] = tested on: Mz-ChA-1; assay: MTT cytotoxicity assay, substances alone, Mz-ChA-1; assay type: cell-based, human; settings: for IC50: Homo sapiens, substance alone, 4 h exposure + 72 h recovery
Description: (§1) Suitable vehicle controls were also included.
(§2) The effect of the treatments on cell viability was measured by the MTT assay as previously described. A higher than 30% reduction of cell viability was considered as a significant cytotoxic effect.

[3] = tested on: phospho(Tyr705)-STAT3; assay: Western blotting of STAT3 phosphorylation in Bx-PC3 cells; assay type: cell-based, human; settings: for increase of STAT3 phosphorylation at tyrosine 705: substance alone, sorafenib and sesquiterpenes 10 μg/mL, verapamil/MK571 1 μg/mL, normalized to total STAT3
Description: as §1
Confluent cells were seeded in 6-well plates (5 × 10^5 cells/well), treated as described above, then harvested by centrifugation and washed in PBS. After lysis with a suitable buffer, the Western blotting analysis was carried out, according to previously published methods. […] The levels of phospho(Tyr705)-STAT3 were normalized against total STAT3 ones.

[4] = tested on: noncancerous H69 cholangiocytes; assay: Combination assay with sorafenib (MTT), tolerability in H69; assay type: cell-based, human; settings: combination with 1 µg/mL and 10 µg/mL sorafenib, verapamil/MK571 1 µg/mL
Description: as §1
(§3) The type of interaction (synergistic, additive, or antagonistic) among sorafenib and test substances or positive controls was evaluated by measuring the reversal ratio value (RR), combination index (CI), and isobolographic analysis (IB), as previously described.

[5] = tested on: HepG2; assay: MTT cytotoxicity assay, substances alone, HepG2; assay type: cell-based, human
Description: as §1, §2

[6] = tested on: Bx-PC3; assay: Combination assay with sorafenib (MTT), Bx-PC3; assay type: cell-based, human;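 as to increase of sorafenib cytotoxicity in combination: percent increase of sorafenib cell viability inhibition versus sorafenib alone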
Description: as §1, §3

[7] = tested on: noncancerous H69 cholangiocytes; assay: MTT cytotoxicity assay (tolerability), substances alone, H69; assay type: cell-based, human; settings: for higher cytotoxicity in normal H69 cells than in cancerous Mz-ChA-1 cholangiocytes (IC50 comparison): H69 vs Mz-ChA-1; for CC50: Homo sapiens, H69 noncancerous cholangiocytes, substance alone, 4 h exposure + 72 h recovery, read-out: IC50 (CL)
Description: as §1, §2

[8] = tested on: MRP2; assay: Immunofluorescence analysis in Bx-PC3 cells, MRP2; assay type: cell-based, human; settings: substance alone
Description: as §1
(§4) The analysis was performed according to previously published methods. Confluent cells were seeded in 24-well plates (2 × 10^4 cells/well), allowed to adhere overnight, then treated as described above. After treatment, cells were fixed in pure methanol and washed with 4% bovine serum albumin (BSA) and PBS + Tween 20 (PBS-T) for 1 h. […] The expression and localization of Pgp, MRP1, and MRP2 pumps into cells were analyzed by using a Cytation 1 Cell Imaging Multimode Reader (Biotech, USA).

[9] = tested on: Mz-ChA-1; assay: Combination assay with sorafenib (MTT), Mz-ChA-1; assay type: cell-based, human;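 as to increase of sorafenib cytotoxicity in combination: percent increase of sorafenib cell viability inhibition versus sorafenib alone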
Description: as §1, §3

[10] = tested on: HepG2; assay: Combination assay with sorafenib (MTT), HepG2; assay type: cell-based, human; settings: for increase of sorafenib cytotoxicity in combination: verapamil/MK571 1 µg/mL or sesquiterpenes 10 µg/mL;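 as to increase of sorafenib cytotoxicity in combination: percent increase of sorafenib cell viability inhibition versus sorafenib alone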
Description: as §1, §3

[11] = tested on: Bx-PC3; assay: MTT cytotoxicity assay, substances alone, Bx-PC3; assay type: cell-based, human; settings: for IC50: Homo sapiens, BXPC-3, substance alone, 4 h exposure + 72 h recovery
Description: as §1, §2

[12] = tested on: Pgp; assay: Immunofluorescence analysis in Bx-PC3 cells, Pgp; assay type: cell-based, human; settings: substance alone, sorafenib and sesquiterpenes 10 µg/mL, verapamil 1 µg/mL
Description: as §1, §4

[13] = tested on: MRP2; assay: RT-qPCR gene expression in Bx-PC3 cells, MRP2; settings: substance alone
Description: (§5) Confluent cells were treated with the test substances, both alone or in combination with the anticancer drug, for 4 h, then washed and incubated for a further 72 h (Figure 1), according to previously published protocols [20]. […] Suitable vehicle controls were also included.
(§6) The results of mRNA abundance for the targeted genes in each sample were normalized on the basis of GAPDH (Bio-Rad, Hercules, CA, USA) mRNA. Data are expressed as 2^−ΔCt, calculated using the CFX Manager software (Bio-Rad).

[14] = tested on: MRP1; assay: Immunofluorescence analysis in Bx-PC3 cells, MRP1; assay type: cell-based, human; settings: substance alone, 10 µg/mL
Description: as §1, §4

[15] = tested on: MRP1; assay: RT-qPCR gene expression in Bx-PC3 cells, MRP1; assay type: cell-based, human; settings: substance alone
From the text: as §1

[16] = tested on: MDR1; assay: RT-qPCR gene expression in Bx-PC3 cells, MDR1; settings: substance alone, 4 h exposure + 72 h recovery
Description: as §5, §6

Question: What does the source list for CN(C)C(=O)CCSC(SCCC(=O)O)c1cccc(/C=C/c2ccc3ccc(Cl)cc3n2)c1 (stereo not drawn) [MK571, reference compound]?
Answer: wound area / cell migration after 72 h ([1]; substance alone, sesquiterpenes 10 µg/mL, verapamil/MK571 1 µg/mL): almost complete closure of wound area; increase of wound area ([1]; substance in combination with sorafenib 10 µg/mL, reference and time not stated): approximately 3.7 fold; IC50 ([2]; Mz-ChA-1): 94.6 µg/mL; IC50 higher than that of sorafenib ([2]; Mz-ChA-1): 1.2 fold; inhibition of cell viability ([2]; Mz-ChA-1, 50 µg/mL): approximately 15%; inhibition of cell viability ([2]; Mz-ChA-1, 250 µg/mL): ~90%; increase of STAT3 phosphorylation at tyrosine 705 [3]: 1.5 fold; reduction of phospho(Tyr705)-STAT3 with respect to sorafenib ([3]; substance in combination with sorafenib 10 μg/mL): 3.7 fold; reduction of cell viability with respect to sorafenib alone [4]: ~15%; IC50 higher than that of sorafenib ([5]; HepG2): comparable; inhibition of cell viability ([5]; HepG2, 50 µg/mL): 50%; reduction of sorafenib IC50 in the presence of the substance [6]: ~3.9 fold; increase of sorafenib cytotoxicity in combination ([6]; sorafenib 1 µg/mL, verapamil/MK571 1 µg/mL or sesquiterpenes 10 µg/mL): ~10%; increase of sorafenib cytotoxicity in combination ([6]; sorafenib 10 µg/mL, verapamil/MK571 1 µg/mL): ~47%; higher cytotoxicity in normal H69 cells than in cancerous Mz-ChA-1 cholangiocytes (IC50 comparison) [7]: ~2.9 fold; CC50 [7]: 32.6 µg/mL; effect on MRP2 transporter expression (immunofluorescence) [8]: significantly lowered; reduction of sorafenib IC50 in the presence of the substance [9]: 1.7 fold; increase of sorafenib cytotoxicity in combination ([9]; sorafenib 1 µg/mL, verapamil/MK571 1 µg/mL): 3%; increase of sorafenib cytotoxicity in combination ([9]; sorafenib 10 µg/mL, verapamil/MK571 1 µg/mL or sesquiterpenes 10 µg/mL): 20%; reduction of sorafenib IC50 in the presence of the substance [10]: ~6 fold; increase of sorafenib cytotoxicity in combination ([10]; sorafenib 1 µg/mL): ~23%; increase of sorafenib cytotoxicity in combination ([10]; sorafenib 10 µg/mL): ~40%; IC50 higher than that of sorafenib [11]: 2.5 fold; inhibition of cell viability ([11]; 50 µg/mL): ~33%; inhibition of cell viability ([11]; 250 µg/mL): ~90%; IC50 [11]: 78.5 µg/mL

Question: How did the “effect on Pgp expression (immunofluorescence)” value [12] turn out when CNC(=O)c1cc(Oc2ccc(NC(=O)Nc3ccc(Cl)c(C(F)(F)F)c3)cc2)ccn1 [Sorafenib, sorafenib tosylate] was run?
Answer: The value was “slight increase”.

Question: What about the “change of wound area after 4 h” value ([1]; sorafenib 10 µg/mL alone) of the same compound?
Answer: Its value is “slight reduction”.

Question: And the “increase of wound area at 72 h” value ([1]; sorafenib 10 µg/mL alone)?
Answer: The value was 1.2 fold.

Question: What about the IC50 ([2]; Mz-ChA-1) of the same compound?
Answer: The IC50 was 76.1 µg/mL.

Question: What about the “inhibition of cell viability” value ([2]; Mz-ChA-1, 50 µg/mL) of the same compound?
Answer: The value was “about 30%”.

Question: What about the “inhibition of cell viability” value ([2]; Mz-ChA-1, 250 µg/mL) of the same compound?
Answer: Its value is “about 90%”.

Question: And the “IC50 higher with respect to Bx-PC3 cells” value ([2]; Mz-ChA-1 vs Bx-PC3)?
Answer: The value was roughly 2.4 fold.

Question: And the “increase of STAT3 phosphorylation at tyrosine 705” value [3]?
Answer: The value was 4.6 fold.

Question: And the “decrease of MRP2 gene expression” value [13]?
Answer: The value was roughly 2 fold.

Question: What about the “inhibition of cell viability” value ([5]; HepG2, 10 µg/mL) of the same compound?
Answer: Its value is “approximately 10%”.

Question: And the “inhibition of cell viability” value ([5]; HepG2, 500 µg/mL)?
Answer: The value was 95%.

Question: And the “IC50 higher with respect to Bx-PC3 cells” value ([5]; HepG2 vs Bx-PC3)?
Answer: The value was “approximately 1.5 fold”.

Question: What about the “lowering of MRP1 expression compared to control (immunofluorescence)” value [14] of the same compound?
Answer: The value was 1.2 fold.

Question: And the “decrease of MRP1 gene expression” value [15]?
Answer: Its value is roughly 2 fold.

Question: What about the “higher cytotoxicity in normal H69 cells than in cancerous Mz-ChA-1 cholangiocytes (IC50 comparison)” value [7] of the same compound?
Answer: Its value is “approximately 1.5 fold”.

Question: And the CC50 [7]?
Answer: Its CC50 is 50.3 µg/mL.

Question: And the “effect on MRP2 transporter expression (immunofluorescence)” value [8]?
Answer: Its value is “significantly lowered”.

Question: What about the “increase of MDR1 gene expression with respect to control” value [16] of the same compound?
Answer: The value was 3.6 fold.

Question: What about the “inhibition of cell viability” value ([11]; 50 µg/mL) of the same compound?
Answer: Its value is 70%.

Question: And the IC50 [11]?
Answer: The IC50 was 31 µg/mL.

Question: And the “cell viability at the higher tested concentrations” value ([11]; concentrations higher than 50 µg/mL)?
Answer: Its value is “almost completely inhibited”.

Reference: article PMC9231089, “Sorafenib Chemosensitization by Caryophyllane Sesquiterpenes in Liver, Biliary, and Pancreatic Cancer Cells: The Role of STAT3/ABC Transporter Axis” (Pharmaceutics, 2022)
